One compound from paper PMC12362796, “Bilirubin Targeting WNK1 to Alleviate NLRP3‐Mediated Neuroinflammation” (Advanced Science, 2025) can be followed below.

Experiment [1] concerns the target T1, WNK1 (1–491) (Homo sapiens, UniProt Q9H4A3).
T1 construct: different lengths of WNK1 truncations (1–491, 1–190, 191–491, 491–2382); expressed in transfected cells; host or cells: HEK293T
Description: MST, EGFP-tagged WNK1 truncation 1–491. It counts as binding. Particulars: WNK1 1–491, 15 min, HEK293T lysates. The source says: To further validate these findings, we constructed GFP‐tagged fusion proteins with different lengths of WNK1 truncations (1–491, 1–190, 191–491, 491–2382) based on the WNK1 domains (Figure 3E) and analyzed their binding capacity with bilirubin using MST analysis.^[ [29] ^]
All WNK1 clones were derived from the original untagged hWNK1 cDNA (NM_018979), which was modified and subcloned into the pcDNA3.1, referred to as “full‐length WNK1” throughout this study. Truncated constructs, including 1–190aa, 191–491aa, 1–491aa, and 491–2382aa fragments, were generated by PCR using the full‐length template and subsequently ligated into linearized pcDNA3.1 vectors. WNK2 was obtained from Addgene Plasmid #24569, and WNK3 was obtained from Addgene Plasmid #81723. Both were subjected to base modifications and cloned into pcDNA3.1. The WNK4 clone was derived from hWNK4 cDNA (NM_032387.5), modified, and subcloned into the pCMV3‐C‐GFPSpark vector.
In HEK293T cells, proteins tagged with green fluorescent protein (GFP) were expressed. The cells were lysed using the M‐PER Mammalian Protein Extraction Reagent (cat. no. 78505, Thermo Scientific) supplemented with protease inhibitors. Lysates were centrifuged at 12000 × g for 15 min at 4 °C, and the supernatant containing proteins was diluted 10‐fold with 1x PBST. […]

Experiment [2] concerns WNK1 phosphorylation at Thr58. Description: Western blotting of WNK1 phosphorylation in cochlear nucleus. It counts as cell-based. Particulars: mouse cochlear nuclei, 30 min. As to the method:
To validate these findings, SH‐SY5Y cells were incubated in a serum‐free medium with bilirubin (6 µM) or an equivalent amount of DMSO as the control, followed by protein denaturation at different temperatures (Figure 1A).
C57BL/6 mice at postnatal day 10 (P10) were euthanized on ice, and their cochlear nuclei were dissected and incubated in artificial cerebrospinal fluid (ACSF), with or without 3 µM bilirubin, followed by rapid freezing in liquid nitrogen. The ACSF composition was 124 mM NaCl, 5 mM KCl, 1.2 mM KH2PO4, 1.3 mM MgCl2, 2.4 mM CaCl2, 24 mM NaHCO3, and 10 mM glucose (pH 7.4).
Cells or tissues were lysed by grinding in RIPA buffer (cat. no. PC101; Epizyme Biotech) supplemented with a protease inhibitor cocktail (cat. no. 5872S; Cell Signaling Technology) at 4 °C. The lysate was subsequently centrifuged at 16000 × g for 30 min at 4 °C and the resulting supernatant was collected. The total protein concentration was determined using the Pierce BCA Protein Assay Kit (cat. no. 23 225, Thermo Fisher Scientific). The samples were denatured in a Protein Sample Loading Buffer (cat. no. LT101; Epizyme Biotech) at 95 °C and subjected to SDS‐polyacrylamide gel electrophoresis. Following electrophoresis, the proteins were transferred onto a nitrocellulose membrane (cat. no. HATF00010; Millipore) using a transfer buffer composed of 25 mM Tris, 190 mM glycine, and 20% methanol. […]

The test system of experiment [3] is primary cultured hippocampal neurons. Description: MQAE intracellular chloride measurement in primary cultured hippocampal neurons. The class given is cell-based, mouse. An excerpt: Therefore, we hypothesized that bilirubin activation of WNK1 kinase activity might affect intracellular chloride levels. […] This was detected using the sensitive molecular probe N‐(Ethoxycarbonylmethyl)‐6‐Methoxyquinolinium Bromide (MQAE), as indicated by a reduction in MQAE fluorescence intensity (Figure 4C,E).^[ [32] ^]
To ascertain whether bilirubin regulates chloride ions through WNK1, we generated Wnk1 gene knockout primary cultured neurons. We achieved neuron‐specific deletion of Wnk1 in hippocampal neurons by transducing primary neurons isolated from Wnk1^flox/flox embryonic mice with a lentivirus expressing hSyn‐Cre‐EGFP.^[ [33], [34] ^] […] Intracellular chloride concentration is crucial for modulating inhibitory synaptic transmission and, consequently, neuronal excitability.
Since bilirubin‐induced activation of WNK1 kinase activity increases [Cl⁻]i in neurons, we sought to elucidate the downstream effector proteins of WNK1 that are involved in this process. Neuronal [Cl⁻]i is primarily regulated by the Cl⁻‐K⁺ symporter KCC2, with additional modulation by factors such as the Na⁺‐K⁺‐Cl⁻ co‐transporter NKCC1, GABAA receptors, and glycine receptors (GlyR), all of which contribute to [Cl⁻]i homeostasis.^[ [31] ^] To investigate the mechanism underlying bilirubin‐induced changes in [Cl⁻]i, we selectively targeted these proteins using pharmacological inhibitors (VU0463271 for KCC2, bumetanide for NKCC1, bicuculline for GABAA receptors, and strychnine for GlyR) and activated KCC2 using CLP257.^[ [35], [36] ^] […] The bilirubin‐induced effect on [Cl⁻]i was not observed in primary astrocytes (Figure S15A,B, Supporting Information) or the HEK 293T cell line (Figure S15C, Supporting Information), both of which lacked KCC2 expression (Figure S16A,B, Supporting Information), further confirming that the effects of bilirubin and WNK1 on [Cl⁻]i elevation are dependent on KCC2.
Intracellular chloride concentration ([Cl⁻]i) was measured using the MQAE fluorescent dye (Life Technologies) following established protocols (Zhang, Lee et al. 2015). […]

T1 sequence (Q9H4A3 1-491): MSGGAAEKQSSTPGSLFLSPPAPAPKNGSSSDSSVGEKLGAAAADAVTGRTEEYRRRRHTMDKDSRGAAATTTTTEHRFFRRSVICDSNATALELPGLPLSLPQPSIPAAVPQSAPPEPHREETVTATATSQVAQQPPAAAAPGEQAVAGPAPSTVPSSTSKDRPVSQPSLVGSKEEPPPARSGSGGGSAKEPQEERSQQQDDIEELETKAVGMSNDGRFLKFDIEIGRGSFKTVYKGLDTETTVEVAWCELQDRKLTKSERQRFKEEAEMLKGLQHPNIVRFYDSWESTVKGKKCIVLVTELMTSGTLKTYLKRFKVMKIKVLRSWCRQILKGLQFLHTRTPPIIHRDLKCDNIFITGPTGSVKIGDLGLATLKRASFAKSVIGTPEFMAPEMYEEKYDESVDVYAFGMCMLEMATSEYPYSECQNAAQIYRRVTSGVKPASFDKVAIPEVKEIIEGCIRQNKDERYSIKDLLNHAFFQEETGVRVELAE

As for `C=CC1=C(C)/C(=C/c2[nH]c(Cc3[nH]c(/C=C4\NC(=O)C(C)=C4C=C)c(C)c3CCC(=O)O)c(CCC(=O)O)c2C)NC1=O` [bilirubin, Bilirubin], in experiment [1], binding was characterised by a dissociation constant (Kd) of 315 nM. Moreover, the “WNK1 phosphorylation at Thr58 (Thr60 in humans)” value in experiment [2] is listed as “substantial reduction”. Also, the “[Cl−]i levels after Wnk1 deletion” value in experiment [3] (Wnk1 knockout primary neurons (hSyn-Cre lentivirus)) was “failed to increase”. Moreover, in experiment [3] (varying concentrations, 30 min, MQAE fluorescence), the intracellular chloride concentration result is “significant increase”.
